Assays:
[1] = system: step 6 (EPSPS) of Neisseria gonorrhoeae; test: N−1 assay for molecular target of glyphosate, [Sau HGC] lacking step 6; assay type: cell-based, yeast (aro1Δ) carrying Neisseria gonorrhoeae pathway; details: aro1Δ [Ngo] yeast with [Sau HGC] lacking step 6, −AAA, 0.25% glyphosate
Source text: (§1) FIG. 6. Molecular target identification of the shikimate pathway inhibitor glyphosate in the yeast avatar system. Yeast cells lacking ARO1 (aro1Δ) carrying the Neisseria gonorrhoeae pathway ([Ngo]) or an empty vector (empty) were co-transformed with a full-length Staphylococcus aureus pathways ([Sau HGC]), one of five derivatives of [Sau HGC] lacking a single enzymatic activity (step 2, step 3, step 4, step 5, step 6), or an empty vector (empty) lacking all shikimate pathway enzymatic activities. Cells were plated on replete medium including aromatic amino acids (+AAA) or selective medium lacking aromatic amino acids (−AAA). 0.25% glyphosate (vol/vol of a commercially available 41% solution of glyphosate) was added to the plates where indicated. Cell growth indicates complementation and absence of cell growth indicates no complementation.
(§2) As discussed above, five steps of the endogenous shikimate pathway are provided by a single gene, ARO1, which encodes a penta-functional protein (FIG. 1, 2). […] To distinguish between these possibilities and determine whether any of the heterologous enzymatic activities are functional in yeast, the “N−1” assay can be used. […] Each of the five strains can then be evaluated for complementation on medium lacking aromatic amino acids. […]

[2] = system: Staphylococcus aureus pathway; test: Yeast avatar glyphosate sensitivity assay, Staphylococcus aureus pathway; assay type: cell-based; details: aro1Δ yeast carrying Staphylococcus aureus pathway, 0.25% glyphosate, FIG. 3
[3] = system: yeast avatars expressing heterologous shikimate pathways (EPSPS enzyme); test: Yeast avatar glyphosate sensitivity assay (panel of avatars); assay type: cell-based, Saccharomyces cerevisiae
[4] = target: T1, step 2 (DHQS) of Neisseria gonorrhoeae (Neisseria gonorrhoeae, UniProt Q5FAD4); test: N−1 assay for molecular target of glyphosate, [Sau HGC] lacking step 2; assay type: cell-based; details: aro1Δ [Ngo] yeast with [Sau HGC] lacking step 2, −AAA, 0.25% glyphosate
T1 construct: expressed in transfected cells; host or cells: Saccharomyces cerevisiae aro1Δ, co-transformed with [Sau HGC] lacking step 2
Source text: as §1, §2

[5] = target: step 2 of the pathway, DHQS (Escherichia coli, UniProt P07639); details: reference (25); cited from earlier work
[6] = system: Neisseria gonorrhoeae pathway; test: Yeast avatar glyphosate sensitivity assay, Neisseria gonorrhoeae pathway; assay type: cell-based; details: aro1Δ yeast carrying Neisseria gonorrhoeae pathway, 0.25% glyphosate, FIG. 3

T1 sequence (Q5FAD4 whole entry): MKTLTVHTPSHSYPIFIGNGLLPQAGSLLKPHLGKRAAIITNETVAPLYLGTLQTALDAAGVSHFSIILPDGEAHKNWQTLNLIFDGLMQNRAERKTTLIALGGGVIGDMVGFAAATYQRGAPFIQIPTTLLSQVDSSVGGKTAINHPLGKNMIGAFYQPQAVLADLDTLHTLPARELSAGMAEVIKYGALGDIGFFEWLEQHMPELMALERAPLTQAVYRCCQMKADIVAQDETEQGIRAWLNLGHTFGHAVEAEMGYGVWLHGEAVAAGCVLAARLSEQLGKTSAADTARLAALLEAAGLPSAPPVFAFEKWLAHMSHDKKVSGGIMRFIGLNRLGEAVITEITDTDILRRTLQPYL
Chain of step 2 of the pathway, DHQS (P07639 whole entry): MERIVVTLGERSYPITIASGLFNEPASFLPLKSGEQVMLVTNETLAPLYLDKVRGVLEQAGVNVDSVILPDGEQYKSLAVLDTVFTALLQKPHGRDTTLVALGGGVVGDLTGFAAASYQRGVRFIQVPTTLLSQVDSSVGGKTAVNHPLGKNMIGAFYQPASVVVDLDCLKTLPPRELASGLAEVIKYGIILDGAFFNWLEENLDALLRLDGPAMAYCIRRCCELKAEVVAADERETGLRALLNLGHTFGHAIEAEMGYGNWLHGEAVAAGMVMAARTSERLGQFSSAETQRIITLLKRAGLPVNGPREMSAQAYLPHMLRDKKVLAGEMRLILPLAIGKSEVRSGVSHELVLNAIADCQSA

With `O=C(O)CNCP(=O)(O)O` [glyphosate] the cell growth [1] was “completely inhibited”, the “sensitivity of enzymatic activity to glyphosate” value [1] was “sensitive” and the “growth of avatar on glyphosate (sensitivity/resistance)” value [2] was “resistant”. For the same molecule, the “ability of yeast avatars to grow on glyphosate” value ([3]; 0.25% glyphosate (vol/vol of 41% solution), medium lacking aromatic amino acids, 6 days at 30° C., a number of avatars) was “sensitive”, the “glyphosate sensitivity upon supplementation of aromatic amino acids” value ([3]; 0.25% glyphosate, plus tryptophan, phenylalanine and tyrosine) was “glyphosate sensitivity was overcome” and the cell growth [4] was “completely inhibited”. The “sensitivity of enzymatic activity to glyphosate” value [4] was “sensitive”, the “inhibition of DHQS” value [5] was “inhibits” and the “growth of avatar on glyphosate (sensitivity/resistance)” value [6] was “demonstrated sensitivity”.

Source: patent US10865417B2, “Yeast synthetic biology platform for identifying shikimate pathway enzyme inhibitors” (New York University, priority 2018, dated 2020)
